Assay [1] concerns the target T1, Histone deacetylase 3 (Homo sapiens, UniProt O15379). Kind of assay: Inhibition of human recombinant HDAC3 expressed in baculovirus infected insect High5 cells using Ac-Lys-Tyr-Lys(epsilon-acetyl)-AMC as substrate at 20 ug/ml by fluorescence assay.
Assay [2] concerns the target T2, Protein deacetylase HDAC6 (Homo sapiens) (UniProt Q9UBN7).
T2 sequence (whole entry): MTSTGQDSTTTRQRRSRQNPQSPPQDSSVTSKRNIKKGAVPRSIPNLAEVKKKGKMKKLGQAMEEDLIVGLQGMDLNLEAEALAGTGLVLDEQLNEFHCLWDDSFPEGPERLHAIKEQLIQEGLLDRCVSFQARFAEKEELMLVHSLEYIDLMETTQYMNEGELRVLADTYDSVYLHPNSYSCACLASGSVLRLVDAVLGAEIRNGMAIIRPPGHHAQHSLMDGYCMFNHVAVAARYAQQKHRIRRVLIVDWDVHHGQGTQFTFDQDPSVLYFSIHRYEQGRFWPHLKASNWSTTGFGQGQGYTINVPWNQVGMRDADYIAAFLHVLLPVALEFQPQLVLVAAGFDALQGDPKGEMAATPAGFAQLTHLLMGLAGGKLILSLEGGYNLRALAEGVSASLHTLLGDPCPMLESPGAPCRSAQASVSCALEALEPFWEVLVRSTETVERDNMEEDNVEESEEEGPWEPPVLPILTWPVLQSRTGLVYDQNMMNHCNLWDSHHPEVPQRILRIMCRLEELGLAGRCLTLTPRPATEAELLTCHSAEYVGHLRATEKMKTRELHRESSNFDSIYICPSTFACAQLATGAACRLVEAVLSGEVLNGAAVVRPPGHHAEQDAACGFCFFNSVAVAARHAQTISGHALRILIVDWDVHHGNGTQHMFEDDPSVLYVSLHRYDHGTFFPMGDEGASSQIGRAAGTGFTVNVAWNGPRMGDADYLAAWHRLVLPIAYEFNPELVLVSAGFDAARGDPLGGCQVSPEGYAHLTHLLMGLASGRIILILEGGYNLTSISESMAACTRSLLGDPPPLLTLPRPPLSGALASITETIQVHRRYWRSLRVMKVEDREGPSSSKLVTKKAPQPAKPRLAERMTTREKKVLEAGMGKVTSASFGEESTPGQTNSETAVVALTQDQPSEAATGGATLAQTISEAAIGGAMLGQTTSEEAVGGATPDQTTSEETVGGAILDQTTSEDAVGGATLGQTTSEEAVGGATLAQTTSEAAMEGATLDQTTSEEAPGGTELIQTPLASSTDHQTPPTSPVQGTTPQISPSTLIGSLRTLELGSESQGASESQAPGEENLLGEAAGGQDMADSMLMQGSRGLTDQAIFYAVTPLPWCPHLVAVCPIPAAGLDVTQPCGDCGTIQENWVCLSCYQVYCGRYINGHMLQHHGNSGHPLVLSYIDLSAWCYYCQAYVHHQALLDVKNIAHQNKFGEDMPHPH
The experiment in a line: Inhibition of human recombinant HDAC6 expressed in baculovirus infected insect High5 cells using Boc-Lys(epsilon-acetyl)-AMC as substrate at 20 ug/ml by fluorescence assay.

Another assay has as its system HCT-116. The experiment in a line: Cytotoxicity against human HCT116 cells after 24 hrs by MTT assay. The assay is classed as functional, cell-based. The following applies: HCT-116, 24 h. (In general: Tetrazolium dyes change colour on reduction, which living cells bring about.)
Assay [3] has as its target T3, Histone deacetylase 1 (Homo sapiens, UniProt Q13547). The experiment in a line: Inhibition of human recombinant HDAC1 expressed in baculovirus infected insect High5 cells using Ac-Lys-Tyr-Lys(epsilon-acetyl)-AMC as substrate at 20 ug/ml by fluorescence assay.
Assay [4] concerns the target T4, Protein deacetylase HDAC6 (Homo sapiens, UniProt Q9UBN7).
T4 sequence (Q9UBN7 whole entry): T2 sequence (whole entry)
The experiment in a line: Inhibition of human recombinant HDAC6 expressed in baculovirus infected insect High5 cells using Boc-Lys(epsilon-acetyl)-AMC as substrate by fluorescence assay.

The target in assay [5] is T3, Histone deacetylase 1. The experiment in a line: Inhibition of human recombinant HDAC1 expressed in baculovirus infected insect High5 cells using Ac-Lys-Tyr-Lys(epsilon-acetyl)-AMC as substrate by fluorescence assay.
Assay [6] deals with T1, Histone deacetylase 3. Kind of assay: Inhibition of human recombinant HDAC3 expressed in baculovirus infected insect High5 cells using Ac-Lys-Tyr-Lys(epsilon-acetyl)-AMC as substrate by fluorescence assay.

Active and inactive are the calls of the source. No cut-off for these calls is given here. Some results are limits rather than exact numbers.

This passage reports inhibition and IC50 results from ChEMBL document CHEMBL1806373, “Synthesis and biological evaluation of piperamide analogues as HDAC inhibitors” (Bioorg Med Chem Lett, 2011).

T3 sequence (Q13547 whole entry): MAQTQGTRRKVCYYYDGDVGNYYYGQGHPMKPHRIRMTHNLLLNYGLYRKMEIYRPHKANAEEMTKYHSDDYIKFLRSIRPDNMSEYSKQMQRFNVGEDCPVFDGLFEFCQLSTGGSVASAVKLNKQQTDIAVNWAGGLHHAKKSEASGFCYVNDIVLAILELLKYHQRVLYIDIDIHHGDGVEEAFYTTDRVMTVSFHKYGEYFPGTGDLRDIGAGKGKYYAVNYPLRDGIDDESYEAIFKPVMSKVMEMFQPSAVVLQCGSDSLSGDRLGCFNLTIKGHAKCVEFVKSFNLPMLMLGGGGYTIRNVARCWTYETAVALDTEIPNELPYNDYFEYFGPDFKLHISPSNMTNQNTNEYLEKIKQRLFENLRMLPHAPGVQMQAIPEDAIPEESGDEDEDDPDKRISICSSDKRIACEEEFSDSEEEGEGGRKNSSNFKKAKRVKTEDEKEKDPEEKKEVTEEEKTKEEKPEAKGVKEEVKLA
T1 sequence (O15379 whole entry): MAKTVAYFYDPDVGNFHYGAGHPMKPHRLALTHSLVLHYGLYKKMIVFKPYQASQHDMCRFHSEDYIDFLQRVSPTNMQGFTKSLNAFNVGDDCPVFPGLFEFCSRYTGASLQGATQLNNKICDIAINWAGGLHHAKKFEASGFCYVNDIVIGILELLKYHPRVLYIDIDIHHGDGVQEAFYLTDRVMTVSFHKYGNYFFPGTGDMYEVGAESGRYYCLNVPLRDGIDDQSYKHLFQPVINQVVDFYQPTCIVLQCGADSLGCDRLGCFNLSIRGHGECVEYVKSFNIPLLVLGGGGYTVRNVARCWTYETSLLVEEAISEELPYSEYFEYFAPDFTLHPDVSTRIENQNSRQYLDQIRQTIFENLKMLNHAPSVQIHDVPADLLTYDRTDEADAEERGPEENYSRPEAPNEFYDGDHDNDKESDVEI

What is called inhibition is the drop in the measured response relative to a control, in per cent. One may read the IC50 as the concentration at which inhibition is half-maximal. Take `CC(C)CNC(=O)/C=C/C=C/CC/C=C/c1ccc2c(c1)OCO2` [RETROFRACTAMIDE A]: the inhibition (on Histone deacetylase 3 [1]; in assay [2]; on Histone deacetylase 1 [3]) was less than 50% each time. Further, the IC50 in the assay on HCT-116 is greater than 20 µM.

For the molecule `CC(C)CNC(=O)/C=C/C=C/c1ccc2c(c1)OCO2` [PIPERLONGUMININE], the inhibition entry at Histone deacetylase 3 [1] and on Histone deacetylase 1 [3] was “inactive” in each case. Also, the inhibition in assay [2] is less than 50%. The molecule also had an IC50 with HCT-116 greater than 20 µM.

As to `O=C(O)/C=C/C=C/CC/C=C/c1ccc2c(c1)OCO2`, the inhibition (at Histone deacetylase 3 [1]; in assay [2]; on Histone deacetylase 1 [3]) was less than 50% each time. The IC50 with HCT-116 is greater than 20 µM.

`O=C(O)/C=C/C=C/c1ccc2c(c1)OCO2` [PIPERIC ACID]: the inhibition result on Histone deacetylase 3 [1] and on Histone deacetylase 1 [3] was “inactive” in each case. In addition, in assay [2], the inhibition was less than 50%. For the same molecule, in the assay on HCT-116, the IC50 is greater than 20 µM.

In the case of `O=C(/C=C/C=C/c1ccc2c(c1)OCO2)NO`, the inhibition entry at Histone deacetylase 3 [1] and at Histone deacetylase 1 [3] was “inactive” in each case. For the same molecule, the IC50 in assay [4] amounted to 30.4 µM; in the assay with HCT-116 it was 9.1 µM.

With `O=C(/C=C/C=C/CCCCc1ccc2c(c1)OCO2)NO`, the IC50 came to 1.61 µM on Histone deacetylase 1 [5], 1.52 µM at Histone deacetylase 3 [6], 2.25 µM in assay [4] and 3.5 µM in the assay on HCT-116.

`O=C(/C=C/C=C/CC/C=C/c1ccc2c(c1)OCO2)NO`: the IC50 came out at 0.73 µM at Histone deacetylase 1 [5], 0.76 µM on Histone deacetylase 3 [6], 0.73 µM in assay [4] and 4.4 µM in the assay on HCT-116.

With `O=C(O)/C=C/C=C/CCCCc1ccc2c(c1)OCO2`, the inhibition (on Histone deacetylase 3 [1]; in assay [2]; on Histone deacetylase 1 [3]) was less than 50% in each case. The IC50 in the assay with HCT-116 is greater than 20 µM.
